Laboratory results from US20090253634A1, “Methods and Compositions for the Treatment of Gastrointestinal Disorders” (MICROBIA, INC., priority 2005, published 2009).
Ends that are not written are not given here.

Legend:
[1] = biological target: T1, GC-C receptors found in rat intestinal mucosa (Rattus norvegicus, UniProt P23897); conditions: same assay, observed by Giannella et al.; cited from earlier work
T1 construct: Epithelial cells from the small intestine of rats were obtained; from tissue; host or cells: rat small-intestinal mucosa / epithelial cell suspension
T1 sequence (P23897 23-1072): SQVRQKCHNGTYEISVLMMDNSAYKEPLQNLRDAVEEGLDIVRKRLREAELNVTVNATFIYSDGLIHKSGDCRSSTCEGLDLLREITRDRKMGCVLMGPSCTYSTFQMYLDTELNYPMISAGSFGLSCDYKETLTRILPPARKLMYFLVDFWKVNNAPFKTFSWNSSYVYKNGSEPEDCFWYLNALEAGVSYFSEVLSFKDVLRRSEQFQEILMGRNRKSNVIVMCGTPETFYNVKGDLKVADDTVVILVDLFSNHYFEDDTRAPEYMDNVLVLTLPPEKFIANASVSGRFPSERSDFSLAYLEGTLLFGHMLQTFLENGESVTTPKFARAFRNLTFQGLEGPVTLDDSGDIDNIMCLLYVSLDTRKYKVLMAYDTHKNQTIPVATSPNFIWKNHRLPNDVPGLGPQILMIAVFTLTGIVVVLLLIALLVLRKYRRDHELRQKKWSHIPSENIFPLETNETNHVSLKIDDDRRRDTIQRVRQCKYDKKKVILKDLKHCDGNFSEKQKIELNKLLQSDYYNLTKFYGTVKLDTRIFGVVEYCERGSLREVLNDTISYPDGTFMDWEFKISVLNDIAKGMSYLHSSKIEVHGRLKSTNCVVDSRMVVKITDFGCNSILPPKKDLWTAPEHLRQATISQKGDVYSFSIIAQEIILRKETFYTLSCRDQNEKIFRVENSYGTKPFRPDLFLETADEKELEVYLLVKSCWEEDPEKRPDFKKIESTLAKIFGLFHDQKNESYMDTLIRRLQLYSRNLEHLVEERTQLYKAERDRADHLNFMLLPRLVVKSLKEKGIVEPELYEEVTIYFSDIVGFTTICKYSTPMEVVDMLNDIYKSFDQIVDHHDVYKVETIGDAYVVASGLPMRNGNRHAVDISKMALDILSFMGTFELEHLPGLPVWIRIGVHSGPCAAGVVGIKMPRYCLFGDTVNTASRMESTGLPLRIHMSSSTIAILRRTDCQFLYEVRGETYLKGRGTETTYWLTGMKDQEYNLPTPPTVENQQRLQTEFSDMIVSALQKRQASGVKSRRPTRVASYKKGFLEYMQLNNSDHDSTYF

intestinal GC-C receptor = biological target: T2, intestinal GC-C receptor (Homo sapiens, UniProt P25092); assay: GC-C receptor activity assay (cyclic GMP) in T84 cells; type: cell-based; conditions: chemically synthesized peptides, cyclic GMP by EIA
T2 construct: monolayers of T84 cells in 24-well plates; host or cells: T84 human colon carcinoma cells
Protocol: The ability of SEQ ID NO:5, SEQ ID NO:4, SEQ ID NO:3, and SEQ ID NO:6 to activate the intestinal GC-C receptor was assessed in an assay employing the T84 human colon carcinoma cell line (American Type Culture Collection (Bethesda, Md.)). For the assays cells were grown to confluency in 24-well culture plates with a 1:1 mixture of Ham's F12 medium and Dulbecco's modified Eagle's medium (DMEM), supplemented with 5% fetal calf serum and were used at between passages 54 and 60.
Briefly, monolayers of T84 cells in 24-well plates were washed twice with 1 ml/well DMEM, then incubated at 37° C. for 10 min with 0.45 ml DMEM containing 1 mM isobutylmethylxanthine (IBMX), a cyclic nucleotide phosphodiesterase inhibitor, Test peptides (50 μl) were then added and incubated for 30 minutes at 37° C. The media was aspirated and the reaction was then terminated by the addition of ice cold 0.5 ml of 0.1N HCl. The samples were held on ice for 20 minutes and then evaporated to dryness using a heat gun or vacuum centrifugation.

gastrointestinal transit = assay: murine gastrointestinal transit (GIT) assay, acute and chronic dosing; type: in vivo, mice; conditions: for gastrointestinal transit rate: oral, SEQ ID NO:4 and Zelnorm 0.1 mg/kg, FIG. 3a, 3b; for intestinal transit rate, dose dependence: recombinantly synthesized peptides, FIG. 4a
Protocol: In order to determine whether the peptides increase the rate of gastrointestinal transit, the peptides and controls were tested using a murine gastrointestinal transit (GIT) assay (Moon et al. Infection and Immunity 25:127, 1979). In this assay, charcoal, which can be readily visualized in the gastrointestinal tract is administered to mice after the administration of a test compound. The distance traveled by the charcoal is measured and expressed as a percentage of the total length of the […].
Mice were fasted with free access to water for 12 to 16 hours before the treatment with peptide or control buffer. The peptides were orally administered at 1 μg/kg-1 mg/kg of peptide in buffer ([…] pH 7.5) 7 minutes before being given an oral dose of 5% Activated Carbon (Aldrich 242276-250G). Control mice were administered buffer only before being given a dose of Activated Carbon. After 15 minutes, the mice were sacrificed and their intestines from the stomach to the cecum were dissected. The total length of the intestine as well as the distance traveled from the stomach to the charcoal front was measured for each animal and the results are expressed as the percent of the total length of the intestine traveled by the charcoal front. All results are reported as the average of 10 mice±standard deviation. A comparison of the distance traveled by the charcoal between the mice treated with peptide versus the mice treated with vehicle alone was performed using a Student's t test and a statistically significant difference was considered for P<0.05. P-values are calculated using a two-sided T-Test assuming unequal variances.
The identical experiment was performed to determine if SEQ ID NO:3 is effective in a chronic dosing treatment regimen. Briefly, 8 week old CD1 female mice are dosed orally once a day for 5 days with either SEQ ID NO:3 (0.06 mg/kg or 0.25 mg/kg in 20 mM Tris pH 7.5) or vehicle alone (20 mM Tris pH 7.5). On the 5th day, a GIT assay is performed identical to that above except 200 μl of a 10% charcoal solution is administered. […] The results are shown side by side with acute dosing (1 day).

intestinal secretion = assay: suckling mouse model of intestinal secretion (SuMi assay); type: in vivo, suckling mice
Protocol: In this model a test compound is administered to suckling mice that are between 7 and 9 days old. After the mice are sacrificed, the gastrointestinal tract from the stomach to the cecum is dissected (“guts”). The remains (“carcass”) as well as the guts are weighed and the ratio of guts to carcass weight is calculated. If the ratio is above 0.09, one can conclude that the test compound increases intestinal secretion. […] The effect of Zelnorm® was also studied.

PBQ-induced writhing = assay: phenylbenzoquinone (PBQ)-induced writhing model
[2] = recombinant peptides, dose response, FIG. 6a

T2 sequence (P25092 24-1073): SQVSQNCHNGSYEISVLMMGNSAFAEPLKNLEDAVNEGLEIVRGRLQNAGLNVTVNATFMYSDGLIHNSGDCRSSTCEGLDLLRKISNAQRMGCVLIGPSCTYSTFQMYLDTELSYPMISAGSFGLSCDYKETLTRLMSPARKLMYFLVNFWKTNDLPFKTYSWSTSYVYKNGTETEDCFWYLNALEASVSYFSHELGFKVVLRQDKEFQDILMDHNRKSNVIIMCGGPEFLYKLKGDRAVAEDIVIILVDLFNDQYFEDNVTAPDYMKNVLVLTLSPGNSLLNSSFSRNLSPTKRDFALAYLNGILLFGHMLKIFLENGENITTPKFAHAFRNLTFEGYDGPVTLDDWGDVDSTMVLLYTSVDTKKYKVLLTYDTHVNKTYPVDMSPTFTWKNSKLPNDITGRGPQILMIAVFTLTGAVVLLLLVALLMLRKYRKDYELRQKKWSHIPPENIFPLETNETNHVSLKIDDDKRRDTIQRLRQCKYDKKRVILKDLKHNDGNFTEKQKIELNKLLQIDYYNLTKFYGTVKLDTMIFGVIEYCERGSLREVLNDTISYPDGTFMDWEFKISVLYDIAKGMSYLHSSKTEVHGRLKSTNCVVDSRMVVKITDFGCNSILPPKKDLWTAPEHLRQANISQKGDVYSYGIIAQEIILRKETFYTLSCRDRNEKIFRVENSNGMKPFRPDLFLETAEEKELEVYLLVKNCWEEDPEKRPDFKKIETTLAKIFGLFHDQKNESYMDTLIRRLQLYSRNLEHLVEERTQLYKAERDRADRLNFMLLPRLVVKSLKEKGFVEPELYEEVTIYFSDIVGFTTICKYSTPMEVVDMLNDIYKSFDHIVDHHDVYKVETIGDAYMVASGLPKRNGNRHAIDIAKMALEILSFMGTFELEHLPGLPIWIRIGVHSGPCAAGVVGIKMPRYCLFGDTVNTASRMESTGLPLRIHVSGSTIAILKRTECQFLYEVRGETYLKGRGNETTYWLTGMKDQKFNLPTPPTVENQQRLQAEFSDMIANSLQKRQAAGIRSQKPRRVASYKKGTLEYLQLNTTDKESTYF

Compound	Kd [1]	activity in GC-C receptor activity assay (intestinal GC-C receptor)	intestinal transit rates versus Tris buffer or equivalent dose of Zelnorm (gastrointestinal transit; acute, chemically synthesized peptides, FIG. 4b)	gastrointestinal transit rate (gastrointestinal transit; acute)	intestinal transit rate, dose dependence (gastrointestinal transit; acute)	intestinal secretion (guts to carcass weight ratio) (intestinal secretion; dose response, wild-type ST purchased from TDT, FIG. 5a, 5b)	intestinal secretion (guts to carcass weight ratio) (intestinal secretion; [2])	effect in mouse gastrointestinal motility assay upon chronic dosing (gastrointestinal transit; oral once a day for 5 days, SEQ ID NO:3 0.06 or 0.25 mg/kg, FIG. 4c)	intestinal secretion (guts to carcass weight ratio) (intestinal secretion; 0.2 mg/kg)	writhings versus vehicle control (PBQ-induced writhing; 1 mg/kg dose, oral)	antinociceptive effect compared with indomethacin (PBQ-induced writhing; PBQ writhing assay)
NSSNYCCELCCNPACTGCY [SEQ ID NO:4]	~13 nM	activity comparable to SEQ ID NO:4	increase intestinal transit rates more than either Tris buffer alone or an equivalent dose of Zelnorm®	increase gastrointestinal transit rate	increases with an increasing dosage	increase intestinal secretion	increase intestinal secretion				
[H]/N=C(/NCCCCC)N/N=C/c1c[nH]c2ccc(OC)cc12 [Zelnorm®, tegaserod]				increase gastrointestinal transit rate				effective	does not increase intestinal secretion		
NSSNYCCEYCCNPACTGCY (cysteine pairing not given here) [SEQ ID NO:5]					increases with an increasing dosage		increase intestinal secretion			Significant reductions in writhings	antinociceptive effects in this visceral pain model comparable to the intermediate doses of indomethacin
